Source: ChEMBL document CHEMBL1201862, “PubChem BioAssay data set” (2004)
Calls of active or inactive are those of the source.

Tests used:
[1] = A cytotoxicity screen of small molecule inhibitors of the PhoP region in Salmonella typhi identified in the primary screen. [Related pubchem assays: 1850, 1864, 1985 ]; assay type: functional
Cytochrome P450 2D6 = Cytochrome P450 2D6 (Homo sapiens, UniProt P10635);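 also: CYP2D6 member of a cytochrome P450 panel assay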
[2] = biological target: Peroxisome proliferator-activated receptor gamma/Nuclear receptor corepressor 2 (Homo sapiens, UniProt P37231+Q9Y618); experiment: Counterscreen for NR2E3 inverse agonists: TR-FRET-based biochemical high throughput dose response assay to identify inverse agonists of the interaction between peroxisome proliferator-activated receptor gamma (PPARg) and nuclear receptor co-repressor 2 (NCOR2).; assay type: functional
[3] = biological target: Photoreceptor-specific nuclear receptor (Homo sapiens, UniProt Q9Y5X4); experiment: ligands suppressing NR2E3 nuclear receptor activity – biochemical, TR-FRET, dose response (AID 463256); assay type: functional
[4] = Trypanosoma cruzi growth suppression in host cells – NIH3T3 host cells, beta-gal luminescence, confirmation (AID 2044); assay type: functional, cell-based;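 also: intracellular parasites grown in NIH/3T3 mouse fibroblasts as host cells; luminescent beta-galactosidase reporter signal from transgenic T. cruzi replicating inside host cells; inhibitors lower the luminescence signal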
[5] = NIH3T3 cell viability loss – ATP luminescence, mouse fibroblasts, counter-screen, dose response (AID 2010); assay type: functional, cell-based;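 also: cells exposed to compound for about 90 hours before reading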
[6] = biological target: Induced myeloid leukemia cell differentiation protein Mcl-1 (Homo sapiens, UniProt Q07820); assay type: functional
Cytochrome P450 2C19 = Cytochrome P450 2C19 (Homo sapiens, UniProt P33261); experiment: Cytochrome panel assay with activity outcomes. Panel member name: p450-cyp2c19 Compounds with AC50 equal or less than 10 uM are considered active; assay type: functional
Trypsin = Trypsin (Sus scrofa, UniProt P00761); experiment: trypsin protease activity blockade – biochemical, quenched peptide fluorescence, cherry-pick, selectivity assay for Rce1 protease inhibitor project, dose response (AID 488789)
[7] = biological target: FAD-linked sulfhydryl oxidase ALR (Homo sapiens, UniProt P55789); experiment: ALR-catalysed DTT oxidation blockers – biochemical, H2O2 detection, luminescence, cherry-pick, dose response (AID 493248)
[8] = Luminescence Cell-Based Dose Response to Identify Activators of 5'UTR Stem-Loop Driven Prion Protein mRNA Translation in H4-C Neuroglioblastoma Cells. [Related pubchem assays: 1829 (Project Summary), 1814 (Primary HTS)]; assay type: functional
[9] = Luminescence Cell-Based Dose Response HTS to Identify Activators of Luciferase Translation or Activity in H4 […] Cells. [Related pubchem assays: 1829 (Project Summary), 1814 (Primary HTS)]; assay type: functional
H4 = experiment: Luminescence Cell-Based Dose Response HTS to Identify Activators of 5'UTR Stem-Loop Driven Prion Protein mRNA Translation in H4 Neuroglioblastoma Cells. [Related pubchem assays: 1829 (Project Summary), 1814 (Primary HTS)]; assay type: functional; settings: Homo sapiens
[10] = Luminescence Cell-Based Dose Response to Identify Activators of Luciferase Translation or Activity in H4-C Neuroglioblastoma Cells. [Related pubchem assays: 1829 (Project Summary), 1814 (Primary HTS)]; assay type: functional
[11] = Luminescence Cell-Based Dose Confirmation to Identify Activators of 5'UTR Stem-Loop Driven Alpha-Synuclein mRNA Translation in H4 Neuroglioblastoma Cells. [Related pubchem assays: 1829 (Project Summary), 1814 (Primary HTS)]; assay type: functional
Cytochrome P450 2C9 = Cytochrome P450 2C9 (Homo sapiens, UniProt P11712)
[12] = viability of PTEN-deleted HCT116 cells – cell-based, HCT116 PTEN knockout, dose response (AID 1047); assay type: functional;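 also: HCT116 colon tumor cells with PTEN knocked out; cells exposed to compound for 60 hours before readout; potency for loss of cell viability measured by luminescence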
[13] = viability of HCT116 lacking mutant beta-catenin – cell-based, human colon tumor, dose response (AID 1045); assay type: functional;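 also: HCT116 colon tumor cells with beta catenin knocked out; cells exposed to compound for 60 hours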
[14] = biological target: T1, Microphthalmia-associated transcription factor (Homo sapiens, UniProt O75030); experiment: reducers of TRPM1 reporter luminescence, concentration series – cell-based, SK-MEL-5, cherry-picked, set 3, MITF inhibitor project, dose response (AID 493073); assay type: functional;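 also: SK-MEL-5 melanoma cells with luciferase driven by the MITF target TRPM1 promoter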
T1 sequence (O75030 whole entry): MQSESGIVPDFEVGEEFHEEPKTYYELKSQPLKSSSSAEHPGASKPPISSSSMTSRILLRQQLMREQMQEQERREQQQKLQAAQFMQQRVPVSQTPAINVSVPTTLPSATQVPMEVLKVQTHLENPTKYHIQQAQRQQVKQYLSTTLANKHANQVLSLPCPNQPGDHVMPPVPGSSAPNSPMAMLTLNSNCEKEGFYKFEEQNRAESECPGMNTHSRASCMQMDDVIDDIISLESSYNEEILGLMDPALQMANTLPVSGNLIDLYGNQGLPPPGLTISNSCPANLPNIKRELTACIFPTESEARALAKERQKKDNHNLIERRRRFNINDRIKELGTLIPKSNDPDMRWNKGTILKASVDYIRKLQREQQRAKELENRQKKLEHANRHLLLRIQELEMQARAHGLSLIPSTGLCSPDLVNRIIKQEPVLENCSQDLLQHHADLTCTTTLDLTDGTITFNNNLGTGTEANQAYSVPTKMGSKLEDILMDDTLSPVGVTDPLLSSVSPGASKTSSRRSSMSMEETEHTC

[15] = biological target: T2, Replicative DNA helicase DnaB (Mycobacterium tuberculosis, UniProt P9WMR3); experiment: DnaB intein splicing inhibitors, dose response, biochemical, cell-free fluorescence (AID 449749); assay type: functional
T2 sequence (P9WMR3 whole entry): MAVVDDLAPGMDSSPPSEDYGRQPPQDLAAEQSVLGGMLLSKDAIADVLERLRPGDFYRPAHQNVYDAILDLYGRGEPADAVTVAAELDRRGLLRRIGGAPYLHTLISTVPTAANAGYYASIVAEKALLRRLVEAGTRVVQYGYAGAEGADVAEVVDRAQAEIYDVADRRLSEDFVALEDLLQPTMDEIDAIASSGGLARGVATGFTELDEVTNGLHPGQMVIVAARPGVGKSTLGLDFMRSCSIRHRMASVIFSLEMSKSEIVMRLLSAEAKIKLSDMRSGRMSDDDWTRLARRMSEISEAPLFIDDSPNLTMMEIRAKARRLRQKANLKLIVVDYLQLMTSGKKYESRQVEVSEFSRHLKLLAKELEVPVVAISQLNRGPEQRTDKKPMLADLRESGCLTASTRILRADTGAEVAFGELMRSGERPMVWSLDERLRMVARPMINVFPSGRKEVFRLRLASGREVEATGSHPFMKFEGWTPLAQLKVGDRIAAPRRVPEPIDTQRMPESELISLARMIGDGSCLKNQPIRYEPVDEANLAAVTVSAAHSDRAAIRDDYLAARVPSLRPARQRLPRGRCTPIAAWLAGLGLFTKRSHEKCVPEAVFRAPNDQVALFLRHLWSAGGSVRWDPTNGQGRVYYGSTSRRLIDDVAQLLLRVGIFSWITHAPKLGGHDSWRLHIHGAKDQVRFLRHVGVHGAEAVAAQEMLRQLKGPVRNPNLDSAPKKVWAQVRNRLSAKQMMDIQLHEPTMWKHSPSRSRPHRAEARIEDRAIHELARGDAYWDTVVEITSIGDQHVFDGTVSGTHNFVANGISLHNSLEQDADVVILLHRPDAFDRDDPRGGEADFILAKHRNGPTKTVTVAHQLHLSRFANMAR

Protein RecA = biological target: T3, Protein RecA (Mycobacterium tuberculosis, UniProt P9WHJ3); experiment: Fluorescence Cell-Free Homogeneous Dose Retest to Identify Inhibitors of RecA-Intein Splicing Activity. [Related pubchem assays (depositor defined):AID2097, AID2223, AID489010, AID492950]; assay type: functional
T3 sequence (P9WHJ3 whole entry): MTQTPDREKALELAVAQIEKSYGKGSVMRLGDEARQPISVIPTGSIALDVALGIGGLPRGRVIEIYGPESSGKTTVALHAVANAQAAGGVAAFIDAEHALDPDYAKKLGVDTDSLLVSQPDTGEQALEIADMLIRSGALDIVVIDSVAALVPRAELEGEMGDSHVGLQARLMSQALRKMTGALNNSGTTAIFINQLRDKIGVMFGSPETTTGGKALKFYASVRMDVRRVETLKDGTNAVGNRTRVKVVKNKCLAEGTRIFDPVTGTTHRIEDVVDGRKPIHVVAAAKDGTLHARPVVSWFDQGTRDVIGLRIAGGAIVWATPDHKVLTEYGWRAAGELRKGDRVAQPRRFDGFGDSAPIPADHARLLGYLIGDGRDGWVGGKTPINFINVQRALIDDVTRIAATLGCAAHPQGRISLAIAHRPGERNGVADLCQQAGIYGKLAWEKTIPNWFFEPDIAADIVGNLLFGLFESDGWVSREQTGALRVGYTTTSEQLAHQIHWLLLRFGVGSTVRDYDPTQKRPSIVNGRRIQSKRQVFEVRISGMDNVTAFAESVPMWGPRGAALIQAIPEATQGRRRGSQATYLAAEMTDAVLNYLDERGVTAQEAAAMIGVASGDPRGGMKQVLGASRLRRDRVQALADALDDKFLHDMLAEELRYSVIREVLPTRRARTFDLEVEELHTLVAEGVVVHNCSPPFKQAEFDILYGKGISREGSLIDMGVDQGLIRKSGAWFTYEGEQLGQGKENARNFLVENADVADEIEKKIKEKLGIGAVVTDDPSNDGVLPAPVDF

[16] = viability loss in THP-1 monocytes – THP-1 cells, cytotoxicity control for Vif-APOBEC3G degradation inhibitor project, dose response (AID 1117359); assay type: functional; settings: THP-1
Beta-galactosidase = Beta-galactosidase (Escherichia coli, UniProt Q8VNN2); experiment: detection-enzyme interference by beta-gal modulators – biochemical, E. coli enzyme, set 3, artefact control for CCR6 antagonist project, dose response (AID 504712); assay type: functional
Genome polyprotein = Genome polyprotein (dengue virus type 2, UniProt P29990); experiment: flavivirus cap methylation enzyme inhibition – biochemical, confirmation dose response, primary screen (AID 588689); assay type: functional
Paired box protein Pax-8 = Paired box protein Pax-8 (Homo sapiens, UniProt Q06710); experiment: PAX8 transcriptional activity inhibition in RMG-I – RMG-I cells, luciferase, cherry-pick, dose response (AID 687027); assay type: functional, cell-based;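 also: luciferase reporter driven by Pax8 target thyroperoxidase promoter measured by SteadyGlo luminescence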
HeLa = experiment: viability loss in HeLa cells – cell-based, ATP luminescence, cherry-pick samples, cytotoxicity control, dose response (AID 687004); assay type: functional; settings: Homo sapiens

Cytochrome P450 2C19, sequence (P33261 whole entry): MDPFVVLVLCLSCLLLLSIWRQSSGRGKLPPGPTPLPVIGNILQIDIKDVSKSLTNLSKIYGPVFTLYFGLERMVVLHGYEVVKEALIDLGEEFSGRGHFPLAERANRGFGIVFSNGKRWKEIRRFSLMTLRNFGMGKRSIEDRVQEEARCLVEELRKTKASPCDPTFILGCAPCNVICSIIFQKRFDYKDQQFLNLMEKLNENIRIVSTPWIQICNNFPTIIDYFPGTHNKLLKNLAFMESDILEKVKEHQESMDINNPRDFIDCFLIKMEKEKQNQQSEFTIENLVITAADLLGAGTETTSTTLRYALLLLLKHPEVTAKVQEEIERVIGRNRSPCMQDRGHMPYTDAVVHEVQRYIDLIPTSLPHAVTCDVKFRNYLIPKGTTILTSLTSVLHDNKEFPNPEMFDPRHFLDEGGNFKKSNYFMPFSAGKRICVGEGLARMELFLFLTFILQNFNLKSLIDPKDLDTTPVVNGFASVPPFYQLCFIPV
Cytochrome P450 2D6, sequence (P10635 whole entry): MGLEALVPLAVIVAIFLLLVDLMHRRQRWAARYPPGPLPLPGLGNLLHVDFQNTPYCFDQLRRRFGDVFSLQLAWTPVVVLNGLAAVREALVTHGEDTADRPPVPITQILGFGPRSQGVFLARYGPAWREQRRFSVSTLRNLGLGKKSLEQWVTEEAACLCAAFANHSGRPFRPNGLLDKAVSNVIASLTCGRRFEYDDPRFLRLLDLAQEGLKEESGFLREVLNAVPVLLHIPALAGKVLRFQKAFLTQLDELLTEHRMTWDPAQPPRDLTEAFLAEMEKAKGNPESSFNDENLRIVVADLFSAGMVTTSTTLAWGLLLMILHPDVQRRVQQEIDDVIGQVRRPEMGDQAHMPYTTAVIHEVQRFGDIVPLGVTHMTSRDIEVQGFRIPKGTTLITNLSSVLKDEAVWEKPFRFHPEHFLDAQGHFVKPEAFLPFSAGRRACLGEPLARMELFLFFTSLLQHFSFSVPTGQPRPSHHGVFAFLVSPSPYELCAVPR
Peroxisome proliferator-activated receptor gamma/Nuclear receptor corepressor 2, sequence (P37231 whole entry): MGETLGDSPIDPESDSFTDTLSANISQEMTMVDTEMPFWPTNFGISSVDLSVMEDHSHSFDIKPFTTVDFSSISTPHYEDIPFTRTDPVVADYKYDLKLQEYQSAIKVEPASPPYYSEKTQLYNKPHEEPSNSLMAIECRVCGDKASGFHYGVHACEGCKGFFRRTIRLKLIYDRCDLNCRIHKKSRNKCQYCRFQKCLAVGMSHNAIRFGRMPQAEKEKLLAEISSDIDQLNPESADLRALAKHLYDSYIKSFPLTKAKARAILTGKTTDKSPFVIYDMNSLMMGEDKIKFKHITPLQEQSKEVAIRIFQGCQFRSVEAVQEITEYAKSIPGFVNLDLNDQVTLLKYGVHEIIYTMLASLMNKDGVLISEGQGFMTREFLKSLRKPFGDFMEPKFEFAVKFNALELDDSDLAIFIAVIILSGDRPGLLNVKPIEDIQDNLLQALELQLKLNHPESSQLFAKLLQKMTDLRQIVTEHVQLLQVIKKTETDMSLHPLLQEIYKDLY
Peroxisome proliferator-activated receptor gamma/Nuclear receptor corepressor 2, sequence (Q9Y618 whole entry): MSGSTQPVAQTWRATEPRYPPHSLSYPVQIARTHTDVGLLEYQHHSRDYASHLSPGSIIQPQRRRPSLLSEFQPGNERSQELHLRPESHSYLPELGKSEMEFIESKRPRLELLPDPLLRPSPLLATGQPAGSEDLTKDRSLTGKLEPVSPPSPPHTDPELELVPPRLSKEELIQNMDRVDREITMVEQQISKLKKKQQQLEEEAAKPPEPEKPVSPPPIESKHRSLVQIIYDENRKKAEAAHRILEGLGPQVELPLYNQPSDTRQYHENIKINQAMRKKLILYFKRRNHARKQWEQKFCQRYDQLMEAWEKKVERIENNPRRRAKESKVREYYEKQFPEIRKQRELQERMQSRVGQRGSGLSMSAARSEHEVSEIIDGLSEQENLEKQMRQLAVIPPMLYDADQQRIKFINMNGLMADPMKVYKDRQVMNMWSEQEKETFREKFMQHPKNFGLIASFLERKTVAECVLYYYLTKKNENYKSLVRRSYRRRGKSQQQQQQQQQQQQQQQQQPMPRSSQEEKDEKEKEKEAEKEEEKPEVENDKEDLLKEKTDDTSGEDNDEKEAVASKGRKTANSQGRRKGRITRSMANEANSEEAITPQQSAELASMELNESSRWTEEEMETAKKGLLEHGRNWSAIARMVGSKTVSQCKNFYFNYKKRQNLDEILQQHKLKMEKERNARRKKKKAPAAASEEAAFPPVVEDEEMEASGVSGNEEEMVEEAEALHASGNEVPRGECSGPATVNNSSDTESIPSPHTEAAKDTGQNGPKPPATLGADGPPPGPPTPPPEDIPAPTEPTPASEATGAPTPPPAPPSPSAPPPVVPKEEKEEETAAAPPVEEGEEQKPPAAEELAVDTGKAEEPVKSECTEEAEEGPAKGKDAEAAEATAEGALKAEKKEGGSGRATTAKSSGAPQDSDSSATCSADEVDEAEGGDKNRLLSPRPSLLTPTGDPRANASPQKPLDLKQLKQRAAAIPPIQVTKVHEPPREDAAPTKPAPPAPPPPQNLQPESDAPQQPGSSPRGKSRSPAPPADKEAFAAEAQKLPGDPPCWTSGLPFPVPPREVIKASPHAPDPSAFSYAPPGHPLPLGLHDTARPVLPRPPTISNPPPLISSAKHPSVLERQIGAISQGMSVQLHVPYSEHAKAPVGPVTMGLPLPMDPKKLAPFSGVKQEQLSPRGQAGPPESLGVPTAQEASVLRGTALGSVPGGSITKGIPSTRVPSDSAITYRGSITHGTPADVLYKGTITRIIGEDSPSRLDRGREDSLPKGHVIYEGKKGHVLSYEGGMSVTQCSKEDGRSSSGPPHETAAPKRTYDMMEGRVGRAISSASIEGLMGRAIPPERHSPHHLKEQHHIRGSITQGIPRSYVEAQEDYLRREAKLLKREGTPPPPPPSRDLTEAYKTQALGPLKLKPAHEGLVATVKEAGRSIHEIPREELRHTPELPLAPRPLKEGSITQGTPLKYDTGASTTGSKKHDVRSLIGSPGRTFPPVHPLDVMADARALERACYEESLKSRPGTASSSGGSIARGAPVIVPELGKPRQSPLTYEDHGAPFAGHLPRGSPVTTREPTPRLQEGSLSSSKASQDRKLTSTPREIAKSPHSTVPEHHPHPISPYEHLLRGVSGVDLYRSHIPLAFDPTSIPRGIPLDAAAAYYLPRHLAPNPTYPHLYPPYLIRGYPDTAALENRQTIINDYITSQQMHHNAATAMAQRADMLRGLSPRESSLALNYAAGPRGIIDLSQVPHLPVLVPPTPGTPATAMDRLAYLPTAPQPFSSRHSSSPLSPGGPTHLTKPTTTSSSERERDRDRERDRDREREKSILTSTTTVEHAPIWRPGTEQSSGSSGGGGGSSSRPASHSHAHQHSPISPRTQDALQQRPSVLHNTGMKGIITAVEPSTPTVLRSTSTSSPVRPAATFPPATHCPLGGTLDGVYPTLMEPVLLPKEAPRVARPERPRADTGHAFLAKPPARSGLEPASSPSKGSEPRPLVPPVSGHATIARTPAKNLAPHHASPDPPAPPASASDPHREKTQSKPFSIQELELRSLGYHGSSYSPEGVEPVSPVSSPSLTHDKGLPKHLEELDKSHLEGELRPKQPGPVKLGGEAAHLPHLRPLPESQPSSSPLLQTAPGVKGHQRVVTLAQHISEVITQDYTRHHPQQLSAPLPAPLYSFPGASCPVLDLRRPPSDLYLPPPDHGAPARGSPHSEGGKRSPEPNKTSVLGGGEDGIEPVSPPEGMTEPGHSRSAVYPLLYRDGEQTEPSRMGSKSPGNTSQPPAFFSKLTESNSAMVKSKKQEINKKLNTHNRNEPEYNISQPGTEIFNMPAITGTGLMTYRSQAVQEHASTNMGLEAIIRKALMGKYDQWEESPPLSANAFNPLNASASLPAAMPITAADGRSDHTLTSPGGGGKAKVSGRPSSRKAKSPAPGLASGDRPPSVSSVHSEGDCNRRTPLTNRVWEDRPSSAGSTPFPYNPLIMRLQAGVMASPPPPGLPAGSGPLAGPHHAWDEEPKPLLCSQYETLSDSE
Photoreceptor-specific nuclear receptor, sequence (Q9Y5X4 whole entry): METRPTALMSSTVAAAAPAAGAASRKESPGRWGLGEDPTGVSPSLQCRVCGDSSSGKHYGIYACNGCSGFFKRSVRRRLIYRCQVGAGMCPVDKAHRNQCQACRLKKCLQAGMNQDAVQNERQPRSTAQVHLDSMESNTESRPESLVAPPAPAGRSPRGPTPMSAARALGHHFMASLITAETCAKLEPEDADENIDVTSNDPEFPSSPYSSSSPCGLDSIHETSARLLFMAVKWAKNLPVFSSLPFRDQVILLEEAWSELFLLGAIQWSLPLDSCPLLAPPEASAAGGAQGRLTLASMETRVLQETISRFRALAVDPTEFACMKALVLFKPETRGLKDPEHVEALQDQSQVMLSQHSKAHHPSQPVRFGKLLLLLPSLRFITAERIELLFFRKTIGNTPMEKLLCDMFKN
FAD-linked sulfhydryl oxidase ALR, sequence (P55789 whole entry): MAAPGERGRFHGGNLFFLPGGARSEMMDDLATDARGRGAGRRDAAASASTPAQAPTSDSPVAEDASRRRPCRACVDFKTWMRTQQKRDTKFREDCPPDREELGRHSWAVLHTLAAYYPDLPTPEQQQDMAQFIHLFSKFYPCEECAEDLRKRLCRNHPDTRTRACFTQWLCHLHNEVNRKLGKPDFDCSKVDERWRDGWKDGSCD
Paired box protein Pax-8, sequence (Q06710 whole entry): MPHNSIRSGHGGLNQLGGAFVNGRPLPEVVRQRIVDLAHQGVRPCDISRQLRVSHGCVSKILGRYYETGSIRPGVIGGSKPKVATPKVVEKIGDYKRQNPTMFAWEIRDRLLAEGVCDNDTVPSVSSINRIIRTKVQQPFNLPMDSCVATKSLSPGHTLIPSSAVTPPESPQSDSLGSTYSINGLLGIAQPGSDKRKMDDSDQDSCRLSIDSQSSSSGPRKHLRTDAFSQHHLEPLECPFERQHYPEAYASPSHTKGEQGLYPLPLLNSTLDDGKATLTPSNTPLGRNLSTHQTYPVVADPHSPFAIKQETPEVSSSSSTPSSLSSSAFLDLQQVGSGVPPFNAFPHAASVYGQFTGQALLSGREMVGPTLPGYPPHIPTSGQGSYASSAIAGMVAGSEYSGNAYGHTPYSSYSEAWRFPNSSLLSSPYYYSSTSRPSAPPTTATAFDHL

CN(C)C1C(=O)C(C(N)=O)=C(O)C2(O)C(O)=C3C(=O)c4c(O)cccc4C(C)(O)C3CC12 (stereo not given)
EC50 [1]: > 50 µM (active)

O=S(=O)(O)c1ccc(/N=N\c2ccccc2)cc1
AC50 (Cytochrome P450 2D6): inconclusive

O=C(Nc1ccnc(-c2cccnc2)n1)c1ccc(Cl)cc1
IC50 [2]: 5.27 µM (active)
IC50 [3]: 5.23 µM (active)

CCn1c(C)cc(/C=C2\NC(=O)N(Cc3ccc(Cl)cc3)C2=O)c1C
EC50 [4]: 0.178 µM (active)
EC50 [5]: > 30 µM (not active)
IC50 [6]: 3.37 µM (active)
AC50 (Cytochrome P450 2C19; read-out: AC50): 1.78 µM (inconclusive)

CCS(=O)(=O)Nc1c(C(=O)O)[nH]c2ccccc12
AC50 (Trypsin): > 100 µM (inactive)
AC50 [7]: 0.6 µM (active)

Cc1ccccc1C(=O)c1cccn1CC(=O)NCCC1=CCCCC1
EC50 [1]: > 50 µM (active)

CSc1cccc(NC(=O)c2cc(S(=O)(=O)N3CCCCC3)c[nH]2)c1
IC50 [2]: 4.12 µM (active)
IC50 [3]: 3.45 µM (active)

Cn1c(=O)c(=O)n(C)c2cc(S(=O)(=O)N3CCc4ccccc43)ccc21
EC50 [1]: > 50 µM (active)

Nc1nn2cc(-c3ccccc3)nc2c2ccccc12
EC50 [1]: > 50 µM (active)

CC(=O)COC(=O)CCc1nc2ccccc2nc1O
AC50 (Cytochrome P450 2D6): inconclusive

Cc1cc2oc(C(=O)NCc3ccncc3)c(C)c2cc1C
EC50 [1]: > 50 µM (active)

Cc1ccc(OCC(=O)Nc2ccc3c(c2)OCO3)c(C)c1
EC50 [8]: > 12 µM (not active)
EC50 [9]: < 0.1 µM (active)
EC50 (H4): 31.7 µM (active)
EC50 [10]: 1.1 µM (active)
EC50 [11]: 0.914 µM (active)

CCOc1cnn(Cc2ccccc2)c(=O)c1SCc1ccccc1
IC50 [2]: > 39.8 µM (not active)
IC50 [3]: 15.5 µM (not active)

COC(=O)CNC(=O)CN1C(=O)N(c2ccccc2)C(N(O)C(=O)Nc2ccccc2)C1(C)C (stereo not given)
AC50 (Cytochrome P450 2C19; read-out: AC50): 3.55 µM (inconclusive)
AC50 (Cytochrome P450 2C9): 10 µM (inconclusive)
AC50 (Cytochrome P450 2D6): inconclusive

O=C(CCl)N(c1ccccc1)c1c[nH]c2ccccc12
EC50 [12]: 3.78 µM (active)
EC50 [13]: 3.3 µM (active)
AC50 [14]: 5.09 µM (active)
AC50 [15]: 8.51 µM (active)
EC50 (Protein RecA): 0.361 µM (active)

COc1ccc2oc(C(=O)Nc3ccc(S(=O)(=O)N(C)C4CCN(C)CC4)cc3)c(C)c2c1
EC50 [4]: 0.17 µM (active)
EC50 [5]: 9.46 µM (active)
AC50 [14]: 13 µM (active)

CSc1nc(-c2ccc(Cl)cc2)c[nH]1
EC50 [8]: 2.01 µM (active)
EC50 [9]: 0.284 µM (active)
EC50 (H4): < 0.1 µM (active)
EC50 [10]: 0.276 µM (active)
EC50 [11]: 0.386 µM (active)
AC50 [7]: 2.02 µM (active)

COc1cc(OC)c2ccc(=O)oc2c1C(CCN1CCCC(C)C1)c1ccc2c(c1)OCO2 (stereo not given)
CC50 [16]: > 40 µM (active)

CN(C)c1c([N+](=O)[O-])cc(N2C(=O)C=CC2=O)cc1[N+](=O)[O-]
IC50 (Beta-galactosidase): > 66.6 µM (inactive)
IC50 (Genome polyprotein): 11.1 µM (active)

COc1ccc(C(=O)C2=C(O)C(=O)N(CCCC(=O)O)C2c2ccc(OC)cc2)cc1 (stereo not given)
AC50 (Cytochrome P450 2C19): inconclusive
AC50 (Cytochrome P450 2D6): inconclusive

Cc1ccc(NC(=O)c2ccc([N+](=O)[O-])s2)cc1S(=O)(=O)N1CCOCC1
AC50 [14]: 3.78 µM (active)
AC50 (Paired box protein Pax-8): 3.94 µM (active)

Cc1cccc(C)c1NC(=O)C(CCc1ccccc1)N1CCC(c2ccccc2)CC1 (stereo not given)
AC50 (HeLa): > 52 µM (inactive)

Cc1nn(-c2ccccc2)c(O)c1/C=N/N1C(=O)c2ccc3c4c(ccc(c24)C1=O)CC3
IC50 (Beta-galactosidase): > 66.6 µM (inactive)

CC/N=c1\scc(C)n1/N=C/c1ccsc1
EC50 [8]: 0.66 µM (active)
EC50 [9]: 16.6 µM (active)
EC50 (H4): 11.1 µM (active)
EC50 [10]: 0.582 µM (active)
EC50 [11]: 1.08 µM (active)
